Data reported in publication PMC6934184, “Selective DNA-PKcs inhibition extends the therapeutic index of localized radiotherapy and chemotherapy” (The Journal of Clinical Investigation, 2019).

Biological target: T1, EGFR (ErbB1) (Homo sapiens, UniProt P00533)
T1 construct: purchased Thermo Fisher Scientific (Life Technologies) SelectScreen
Experiment: SelectScreen Z'LYTE
Assay type: biochemical
In short: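 Compound tested in SelectScreen activity assays, Z'LYTE for CSF1R, CDK1/cyclin B and MAP2K6 and Adapta for CAMK1. ATP for CAMK1 was listed as 10, and Km app was used for CSF1R. Results are expressed in percent.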

T1 sequence (P00533 25-1210): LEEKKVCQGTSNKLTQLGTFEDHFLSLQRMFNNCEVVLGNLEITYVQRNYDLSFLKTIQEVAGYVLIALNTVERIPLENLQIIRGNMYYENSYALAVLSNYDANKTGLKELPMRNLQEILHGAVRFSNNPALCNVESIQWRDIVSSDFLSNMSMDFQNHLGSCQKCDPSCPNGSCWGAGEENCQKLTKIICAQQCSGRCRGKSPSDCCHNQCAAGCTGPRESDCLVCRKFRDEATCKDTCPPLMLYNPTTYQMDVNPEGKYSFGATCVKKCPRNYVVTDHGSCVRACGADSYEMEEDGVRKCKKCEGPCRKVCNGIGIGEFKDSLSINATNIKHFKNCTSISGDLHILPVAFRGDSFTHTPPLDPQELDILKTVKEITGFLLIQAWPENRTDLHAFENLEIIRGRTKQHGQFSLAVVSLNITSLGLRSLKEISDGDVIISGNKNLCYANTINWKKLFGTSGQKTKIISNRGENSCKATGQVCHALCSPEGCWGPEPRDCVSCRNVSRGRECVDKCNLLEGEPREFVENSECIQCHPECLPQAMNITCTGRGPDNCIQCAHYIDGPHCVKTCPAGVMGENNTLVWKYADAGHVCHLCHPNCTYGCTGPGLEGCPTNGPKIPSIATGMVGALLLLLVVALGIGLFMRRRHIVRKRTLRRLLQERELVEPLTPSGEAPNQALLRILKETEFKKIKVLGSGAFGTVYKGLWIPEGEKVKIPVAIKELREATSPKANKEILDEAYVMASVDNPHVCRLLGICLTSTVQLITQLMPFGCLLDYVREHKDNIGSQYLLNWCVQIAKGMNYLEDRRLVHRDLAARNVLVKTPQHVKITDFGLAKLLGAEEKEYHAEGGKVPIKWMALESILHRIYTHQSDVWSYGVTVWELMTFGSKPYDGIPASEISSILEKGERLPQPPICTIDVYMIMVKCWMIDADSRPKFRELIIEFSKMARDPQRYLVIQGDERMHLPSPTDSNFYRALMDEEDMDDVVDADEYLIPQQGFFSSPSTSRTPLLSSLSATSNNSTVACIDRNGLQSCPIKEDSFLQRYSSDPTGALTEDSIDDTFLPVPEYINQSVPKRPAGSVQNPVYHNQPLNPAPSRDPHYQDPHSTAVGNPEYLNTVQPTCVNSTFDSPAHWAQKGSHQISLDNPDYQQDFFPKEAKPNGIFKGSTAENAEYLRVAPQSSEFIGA

## CN(C(=O)CN1CCOCC1)c1ccc2sc3c(-c4cccc5c(=O)cc(N6CC7CCC(C6)O7)oc45)cccc3c2c1 [NU5455]
  inhibition at 1 µM: 6%
